These are literature values, as cited in patent publication US20060018840A1, “Aerosolizable formulation comprising nicotine” (priority 2004, published 2006).

Regarding `CC(O)C(=O)O` (stereo not shown) [lactic acid], the pKa entry is “about 3.8”.
